In brackets after ≈: the same amount, converted by molar mass. Activity calls are given as the source filed them. The calls are words filed in the database; no cut-off is given here.
Assays:
Staphylococcus aureus [1] = assay: Antibacterial activity against Staphylococcus aureus ATCC 29213 assessed as post antibiotic effect time at MIC incubated for 1 hr followed by compound washout and measured at 1 hr intervals (reference value: 0 hrs); assay type: functional
Klebsiella pneumoniae = assay: Antibacterial activity against Klebsiella pneumoniae ATCC BAA-1705 incubated for 16 to 18 hrs by broth microdilution assay; assay type: functional
Staphylococcus aureus [2] = assay: Antibacterial activity against Staphylococcus aureus ATCC 29213 assessed as time required to increase 1 log10 CFU at 10 times MIC incubated for 1 hr followed by compound washout and measured at 1 hr intervals (reference value: 2 hrs); assay type: functional
Staphylococcus aureus [3] = assay: Synergistic antibacterial activity against Staphylococcus aureus ATCC 29213 assessed as FIC incubated for 24 hrs in presence of meropenem by checkerboard titration assay; assay type: functional
Staphylococcus aureus [4] = assay: Synergistic antibacterial activity against Staphylococcus aureus ATCC 29213 incubated for 24 hrs in presence of minocycline by checkerboard titration assay; assay type: functional; settings: ATCC 29213, 24 h
Staphylococcus aureus [5] = assay: Synergistic antibacterial activity against Staphylococcus aureus ATCC 29213 assessed as sum of FIC for test compound in presence of levofloxacin and FIC for levofloxacin in presence of test compound incubated for 24 hrs by checkerboard titration assay; assay type: functional
Staphylococcus aureus [6] = assay: Synergistic antibacterial activity against Staphylococcus aureus ATCC 29213 assessed as FIC incubated for 24 hrs in presence of levofloxacin by checkerboard titration assay; assay type: functional
Staphylococcus aureus [7] = assay: Antimicrobial activity against Staphylococcus aureus ATCC 29213 infected in BALB/c mouse model of neutropenic thigh infection assessed reduction in bacterial levels in thigh at 25 mg/kg, ip administered 3 hrs post infection twice at interval of 3 hrs between injections and measured after 24 hrs; assay type: functional, organism-based
Staphylococcus aureus [8] = assay: Potentiation of linezolid-induced antibacterial activity against Staphylococcus aureus ATCC 29213 assessed as FIC incubated for 24 hrs by checkerboard titration assay; assay type: functional
[9] = tested on: Mycobacterium tuberculosis; assay: Antitubercular activity against Mycobacterium tuberculosis H37Rv after 7 days by resazurin dye based assay; assay type: functional; settings: 168 h
Staphylococcus aureus [10] = assay: Synergistic antibacterial activity against Staphylococcus aureus ATCC 29213 assessed as sum of FIC for test compound in presence of daptomycin and FIC for daptomycin in presence of test compound incubated for 24 hrs by checkerboard titration assay; assay type: functional
Staphylococcus aureus [11] = assay: Antibacterial activity against Staphylococcus aureus ATCC 29213 assessed as time required to increase 1 log10 CFU at MIC incubated for 1 hr followed by compound washout and measured at 1 hr intervals (reference value: 2 hrs); assay type: functional
Staphylococcus aureus [12] = assay: Synergistic antibacterial activity against Staphylococcus aureus ATCC 29213 assessed as FIC incubated for 24 hrs in presence of linezolid by checkerboard titration assay; assay type: functional
Staphylococcus aureus [13] = assay: Synergistic antibacterial activity against Staphylococcus aureus ATCC 29213 incubated for 24 hrs in presence of ceftazidime by checkerboard titration assay; assay type: functional; settings: ATCC 29213, 24 h
[14] = Selectivity index, ratio of CC50 for African green monkey Vero cells to MIC for Staphylococcus aureus ATCC 29213; assay type: toxicity; settings: read-out: Selectivity Index
Staphylococcus aureus [15] = assay: Synergistic antibacterial activity against Staphylococcus aureus ATCC 29213 incubated for 24 hrs in presence of meropenem by checkerboard titration assay; assay type: functional; settings: ATCC 29213, 24 h
Staphylococcus aureus [16] = assay: Synergistic antibacterial activity against Staphylococcus aureus ATCC 29213 incubated for 24 hrs in presence of daptomycin by checkerboard titration assay; assay type: functional; settings: ATCC 29213, 24 h
Staphylococcus aureus [17] = assay: Antibacterial activity against Staphylococcus aureus ATCC 29213 assessed as post antibiotic effect time at 10 times MIC incubated for 1 hr followed by compound washout and measured at 1 hr intervals (reference value: 0 hrs); assay type: functional
Staphylococcus aureus [18] = assay: Antimicrobial activity against Staphylococcus aureus ATCC 29213 infected in BALB/c mouse model of neutropenic thigh infection assessed reduction in bacterial levels in thigh at 50 mg/kg, ip administered 3 hrs post infection twice at interval of 3 hrs between injections and measured after 24 hrs; assay type: functional, organism-based
Staphylococcus aureus [19] = assay: Synergistic antibacterial activity against Staphylococcus aureus ATCC 29213 assessed as sum of FIC for test compound in presence of rifampicin and FIC for rifampicin in presence of test compound incubated for 24 hrs by checkerboard titration assay; assay type: functional
Staphylococcus aureus [20] = assay: Synergistic antibacterial activity against Staphylococcus aureus ATCC 29213 assessed as sum of FIC for test compound in presence of linezolid and FIC for linezolid in presence of test compound incubated for 24 hrs by checkerboard titration assay; assay type: functional
Staphylococcus aureus [21] = assay: Synergistic antibacterial activity against Staphylococcus aureus ATCC 29213 assessed as sum of FIC for test compound in presence of meropenem and FIC for meropenem in presence of test compound incubated for 24 hrs by checkerboard titration assay; assay type: functional
Staphylococcus aureus [22] = assay: Potentiation of meropenem-induced antibacterial activity against Staphylococcus aureus ATCC 29213 assessed as FIC incubated for 24 hrs by checkerboard titration assay; assay type: functional
Staphylococcus aureus [23] = assay: Synergistic antibacterial activity against Staphylococcus aureus ATCC 29213 assessed as FIC incubated for 24 hrs in presence of gentamycin by checkerboard titration assay; assay type: functional
Staphylococcus aureus [24] = assay: Potentiation of levofloxacin-induced antibacterial activity against Staphylococcus aureus ATCC 29213 assessed as levofloxacin MIC incubated for 24 hrs by checkerboard titration assay (reference value: 0.25 ug/ml); assay type: functional; settings: ATCC 29213, 24 h
Staphylococcus aureus [25] = assay: Potentiation of minocycline-induced antibacterial activity against Staphylococcus aureus ATCC 29213 assessed as FIC incubated for 24 hrs by checkerboard titration assay; assay type: functional
Staphylococcus aureus [26] = assay: Potentiation of rifampicin-induced antibacterial activity against Staphylococcus aureus ATCC 29213 assessed as rifampicin MIC incubated for 24 hrs by checkerboard titration assay (reference value: […] ug/ml); assay type: functional; settings: ATCC 29213, 24 h
Staphylococcus aureus [27] = assay: Antibacterial activity against vancomycin-resistant Staphylococcus aureus VRS1 incubated for 16 to 18 hrs by broth microdilution assay; assay type: functional
Staphylococcus aureus [28] = assay: Synergistic antibacterial activity against Staphylococcus aureus ATCC 29213 incubated for 24 hrs in presence of linezolid by checkerboard titration assay; assay type: functional; settings: ATCC 29213, 24 h
Staphylococcus aureus [29] = assay: Antibacterial activity against Staphylococcus aureus ATCC 29213 incubated for 16 to 18 hrs by broth microdilution assay; assay type: functional
Staphylococcus aureus [30] = assay: Antimicrobial activity against Staphylococcus aureus ATCC 29213 infected in ip dosed BALB/c mouse model of neutropenic thigh infection assessed reduction in bacterial levels administered 3 hrs post infection twice at interval of 3 hrs between injections and measured after 24 hrs; assay type: functional, organism-based
Staphylococcus aureus [31] = assay: Antibiofilm activity against Staphylococcus aureus ATCC 29213 at 10 times MIC incubated 48 hrs by crystal violet staining based assay relative to control; assay type: functional
Staphylococcus aureus [32] = assay: Synergistic antibacterial activity against Staphylococcus aureus ATCC 29213 assessed as sum of FIC for test compound in presence of minocycline and FIC for minocycline in presence of test compound incubated for 24 hrs by checkerboard titration assay; assay type: functional
[33] = Selectivity index, ratio of CC50 for African green monkey Vero cells to MIC for Mycobacterium tuberculosis H37Rv; assay type: toxicity; settings: read-out: Selectivity Index

| SMILES | MIC (Klebsiella pneumoniae) [ng/mL] | FIC (Staphylococcus aureus [3]) | MIC (Staphylococcus aureus [4]) [ng/mL] | FIC (Staphylococcus aureus [5]) | FIC (Staphylococcus aureus [6]) | FIC (Staphylococcus aureus [8]) | MIC [9] [ng/mL] | FIC (Staphylococcus aureus [10]) | FIC (Staphylococcus aureus [12]) | MIC (Staphylococcus aureus [13]) [ng/mL] | selectivity ratio [14] | MIC (Staphylococcus aureus [15]) [ng/mL] | MIC (Staphylococcus aureus [16]) [ng/mL] | FIC (Staphylococcus aureus [19]) | FIC (Staphylococcus aureus [20]) | FIC (Staphylococcus aureus [21]) | FIC (Staphylococcus aureus [22]) | FIC (Staphylococcus aureus [23]) | MIC (Staphylococcus aureus [24]) [ng/mL] | FIC (Staphylococcus aureus [25]) | further results |
| --- | --- | --- | --- | --- | --- | --- | --- | --- | --- | --- | --- | --- | --- | --- | --- | --- | --- | --- | --- | --- | --- |
| N#Cc1ccc(/C=C/c2nc3ccccc3c(=O)n2-c2ccc(C(=O)O)c(O)c2)cc1 | > 64000 | 0.032 | 1.9 | 0.036 | 0.032 | 0.003 | 64000 (≈ 156 µM) | 0.036 | 0.032 | 1.9 | > 167 | 1.9 | 1.9 | 0.034 | 0.036 | 0.036 | 0.003 | 0.032 | 0.9 | 0.007 | Time (Staphylococcus aureus [1]): 0 h; Time (Staphylococcus aureus [2]): 4 h; Activity (Staphylococcus aureus [7]): Active; Time (Staphylococcus aureus [11]): 2 h; Time (Staphylococcus aureus [17]): 2 h; Activity (Staphylococcus aureus [18]): Active; MIC (Staphylococcus aureus [26]): 0.03 ng/mL; MIC (Staphylococcus aureus [27]): 125 to 250 ng/mL (≈ 0.305 to 0.611 µM); MIC (Staphylococcus aureus [28]): 1.9 ng/mL; MIC (Staphylococcus aureus [29]): 30 ng/mL (≈ 0.0733 µM); Activity (Staphylococcus aureus [30]): Dose-dependent effect; Activity (Staphylococcus aureus [31]): 14.1%; FIC (Staphylococcus aureus [32]): 0.039 |
| N#Cc1ccc(/C=C/c2nc3cccc(F)c3c(=O)n2-c2cccc(O)c2)cc1 | > 64000 | 0.0625 | 7.8 | 0.0661 | 0.0625 | 0.0037 | 8000 (≈ 20.9 µM) | 0.0644 | 0.0625 | 7.8 | > 83.4 | 7.8 | 7.8 | 0.0645 | 0.0662 | 0.0643 | 0.0018 | 0.0625 | 0.9 | 0.0072 | selectivity ratio [33]: > 12.5; MIC (Staphylococcus aureus [26]): 0.03 ng/mL; MIC (Staphylococcus aureus [27]): 250 ng/mL (≈ 0.652 µM); MIC (Staphylococcus aureus [28]): 7.8 ng/mL; MIC (Staphylococcus aureus [29]): 62.5 ng/mL (≈ 0.163 µM); FIC (Staphylococcus aureus [32]): 0.0697 |
